Reference: patent publication US8877763B2, “Substituted pyridopyrimidine compounds and their use as FLT3 inhibitors” (Genosco, priority 2012, dated 2014)
Positions count from the first letter of the chain named. Counter-ions that a name gives are not always drawn. One block for each compound: values may come before it.

Assays:
[1] = tested on: MV4-11 cells expressing human FLT3-ITD; assay: Cell viability assay: inhibition of FLT3-ITD-positive cells (ATPLite); type: cell-based; settings: 72 hour incubation
Protocol: Compounds of the invention were tested for cell viability effect on MV4-11 cells. For cell viability assay, MV4-11 cells expressing human FLT3-ITD were obtained from the American Type Culture Collection (ATCC, Manassas, Va.). This cell line was maintained with an Roswell Park Memorial Institute (RPMI) medium (HyClone™) containing 10 bovine calf serum (BCS; Hyclone™) supplemented iron. The MV4-11 cells were seeded at 2×10^4 cells in 96-well culture plates, and serially diluted compound was then added. After a 72 hour incubation period at 37° C., cell viability was measured using the ATPLite 1 step assay (Perkin-Elmer™) that is based on the quantification of ATP from viable cells. CellTiter Aqueous assay (Promega™) was also performed in parallel as an orthogonal assay. IC50 values were calculated using nonlinear regression and defined as the concentration needed for a 50 reduction in luminescence or absorbance treated versus untreated control cells (Prism™ Software).

JAK2 = target: T1, JAK2 (Homo sapiens, UniProt O60674); assay: Inhibition of enzymatic JAK2 kinase activity (Lance Ulight TR-FRET); type: biochemical
T1 construct: Truncated human FLT3 wildtype, mutant D835Y, and JAK2; purchased Carna Biosciences
T1 sequence (O60674 826-1132 limits assumed): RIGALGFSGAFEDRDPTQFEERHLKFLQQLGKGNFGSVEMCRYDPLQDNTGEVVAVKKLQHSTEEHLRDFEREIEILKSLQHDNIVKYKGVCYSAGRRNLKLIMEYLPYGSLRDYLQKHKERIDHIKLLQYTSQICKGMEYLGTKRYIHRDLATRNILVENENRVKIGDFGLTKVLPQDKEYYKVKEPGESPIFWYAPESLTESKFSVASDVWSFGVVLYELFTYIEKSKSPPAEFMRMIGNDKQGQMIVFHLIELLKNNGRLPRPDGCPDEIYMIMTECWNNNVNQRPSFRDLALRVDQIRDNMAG
Protocol: (§1) Compounds of the invention were initially diluted to 10 mM in 100% DMSO (CALBIOCHEM™) for storage and made into kinase buffer solution to create a compound concentration ranging from 1 uM and 10 uM. Serial dilutions of compounds of the invention were dispensed into a 96-well plate (GREINER BIOSCIENCES™) at 6 μL each.

FLT3 mutant D835Y = target: T2, FLT3 mutant D835Y (Homo sapiens, UniProt P36888, D835Y); assay: Inhibition of enzymatic FLT3 mutant D835Y kinase activity (Lance Ulight TR-FRET); type: biochemical
T2 construct: Truncated human FLT3 wildtype, mutant D835Y; purchased Carna Biosciences
T2 sequence (P36888 564-993 D835Y limits assumed): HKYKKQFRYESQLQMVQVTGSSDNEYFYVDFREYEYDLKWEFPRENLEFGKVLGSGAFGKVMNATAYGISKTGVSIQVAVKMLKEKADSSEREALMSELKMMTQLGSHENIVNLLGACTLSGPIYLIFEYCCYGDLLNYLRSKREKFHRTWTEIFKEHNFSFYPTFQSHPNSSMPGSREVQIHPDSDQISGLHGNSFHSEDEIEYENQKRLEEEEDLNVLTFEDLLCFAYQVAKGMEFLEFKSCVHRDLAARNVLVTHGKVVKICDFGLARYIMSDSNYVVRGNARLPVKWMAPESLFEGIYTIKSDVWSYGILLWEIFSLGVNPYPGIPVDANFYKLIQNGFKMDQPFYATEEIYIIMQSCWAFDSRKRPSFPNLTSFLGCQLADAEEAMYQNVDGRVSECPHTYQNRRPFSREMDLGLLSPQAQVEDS
Protocol: as §1

[2] = tested on: MV4-11 cell line of FLT3-ITD; assay: Xenograft mouse model using MV4-11 cell line; type: in vivo, Balb/C nude mice; settings: for Means of Tumor Volume / Percent Tumor Regression (PTR %): 30 mg/kg every day
Protocol: Compounds of the invention were tested in xenograft mouse model using MV4-11 cell line of FLT3-ITD. All male animals of 6 weeks old Balb/C nude mice were housed in plastic cages (4˜6 mice/cage) containing corn cob and maintained in a pathogen-free facility (20˜25° C., 30˜70% humidity) with a 12 hour light:dark cycle. Tumor model was established by subcutaneous injection with MV4-11 cell suspension. When the average tumor volume reached approximately 400 mm^3 (˜5 weeks post tumor implantation), the tumor bearing-mice were assigned 2 groups (9 mice per each). The compound 238 treatment of 30 mg/kg every day was initiated and continue for 28 days. The vehicle 20% hydroxyl-β-cyclodextrin was used. Tumor volume was measured twice weekly. Where applicable, percent tumor regression (PTR) for each group will be calculated by the formula: PTR=100×(tumor volumeinitial−tumor volumefinal)/(tumor volumeinitial).

[3] = target: T3, Truncated human FLT3 wildtype (Homo sapiens, UniProt P36888); assay: Inhibition of enzymatic FLT3 wildtype kinase activity (Lance Ulight TR-FRET); type: biochemical
T3 construct: Truncated human FLT3 wildtype; purchased Carna Biosciences
T3 sequence (P36888 564-993 limits assumed): T2 sequence (P36888 564-993 D835Y limits assumed) with Y272D
Protocol: as §1

IC50 ([1]; Homo sapiens, MV4-11, 72 h): 0.5 nM
SMILES: CN1CCC(Nc2nc(Nc3ccc(OC4CCCC4)cc3)c3c(=O)[nH]cc(Br)c3n2)CC1 [Compound 237, 8-bromo-4-(4-(cyclopentyloxy)phenylamino)-2-(1-methylpiperidin-4-ylamino)pyrido[4,3-d]pyrimidin-5(6H)-one hydrochloride]

IC50 (JAK2): 845 nM | IC50 (FLT3 mutant D835Y): 0.4 nM | inhibition of kinase activity of FLT3 mutant D835Y (in words) (FLT3 mutant D835Y): strong inhibition | IC50 ([1]; hydrochloride): 1.9 nM | IC50 [3]: 1.4 nM | inhibition of kinase activity of FLT3 wildtype (in words) [3]: strong inhibition
SMILES: CN1CCC(Nc2nc(Nc3ccc(Oc4cccc(F)c4)cc3)c3c(=O)[nH]cc(Br)c3n2)CC1.Cl [Compound 238, 8-bromo-4-(4-(3-fluorophenoxy)phenylamino)-2-(1-methylpiperidin-4-ylamino)pyrido[4,3-d]pyrimidin-5(6H)-one hydrochloride]
Means of Tumor Volume ([2]; day of treatment 1): 312.8 mm^3 | Means of Tumor Volume ([2]; day of treatment 4): 79.4 mm^3 | Percent Tumor Regression (PTR %) ([2]; day of treatment 4): 74.6% | Means of Tumor Volume ([2]; day of treatment 7): 27.6 mm^3 | Percent Tumor Regression (PTR %) ([2]; day of treatment 7): 91.2% | Means of Tumor Volume ([2]; day of treatment 11): 0 mm^3 | Percent Tumor Regression (PTR %) ([2]; day of treatment 11): 100% | Means of Tumor Volume ([2]; day of treatment 14): 0 mm^3 | Percent Tumor Regression (PTR %) ([2]; day of treatment 14): 100% | Means of Tumor Volume ([2]; day of treatment 17): 0 mm^3 | Percent Tumor Regression (PTR %) ([2]; day of treatment 17): 100% | Means of Tumor Volume ([2]; day of treatment 21): 0 mm^3 | Percent Tumor Regression (PTR %) ([2]; day of treatment 21): 100% | Means of Tumor Volume ([2]; day of treatment 25): 0 mm^3 | Percent Tumor Regression (PTR %) ([2]; day of treatment 25): 100% | Means of Tumor Volume ([2]; day of treatment 28): 0 mm^3 | Percent Tumor Regression (PTR %) ([2]; day of treatment 28): 100% | tumor regression (in words) ([2]; after 11 days of compound treatment): complete tumor regression

IC50 (JAK2): 281 nM
SMILES: CN1CCC(Nc2nc(Nc3ccc(Oc4ccccc4)cc3)c3c(=O)[nH]cc(Br)c3n2)CC1 [Compound 226, 8-Bromo-2-(1-methylpiperidin-4-ylamino)-4-(4-phenoxyphenylamino)pyrido[4,3-d]pyrimidin-5(6H)-one hydrochloride]

IC50 (JAK2): 129 nM | IC50 (FLT3 mutant D835Y): 0.6 nM | IC50 [1]: 0.8 nM | IC50 [3]: 0.1 nM
SMILES: CN1CCC(Nc2nc(Nc3ccc(OC4CCCCC4)cc3)c3c(=O)[nH]cc(Br)c3n2)CC1 [Compound 228, 8-bromo-4-((4-(cyclohexyloxy)phenyl)amino)-2-((1-methylpiperidin-4-yl)amino)pyrido[4,3-d]pyrimidin-5(6H)-one]

IC50 (JAK2): 173 nM | IC50 (FLT3 mutant D835Y): 0.3 nM | IC50 ([1]; Homo sapiens, MV4-11, 72 h): 1.4 nM
SMILES: CN1CCC(Nc2nc(Nc3ccc(OC4CCCCC4)cc3)c3c(=O)[nH]cc(Br)c3n2)CC1 [Compound 233, 8-bromo-4-((4-(cyclohexyloxy)phenyl)amino)-2-((1-methylpiperidin-4-yl)amino) pyrido[4,3-d]pyrimidin-5(6H)-one hydrochloride]

IC50 (JAK2): 599 nM | IC50 (FLT3 mutant D835Y): 1.3 nM | IC50 [1]: 0.5 nM | IC50 [3]: 1.2 nM
SMILES: CN1CCC(Nc2nc(Nc3ccc(Oc4cccc(F)c4)cc3)c3c(=O)[nH]cc(Br)c3n2)CC1 [Compound 240, 8-bromo-4-((4-(3-fluorophenoxy)phenyl)amino)-2-((1-methylpiperidin-4-yl)amino) pyrido[4,3-d]pyrimidin-5(6H)-one]

IC50 (JAK2): 153 nM | IC50 (FLT3 mutant D835Y): 0.3 nM | IC50 [3]: 0.6 nM
SMILES: CN1CCC(Nc2nc(Nc3ccc(OC4CCCC4)cc3)c3c(=O)[nH]cc(Br)c3n2)CC1 [Compound 223, 8-bromo-4-((4-(cyclopentyloxy)phenyl)amino)-2-((1-methylpiperidin-4-yl)amino)pyrido[4,3-d]pyrimidin-5(6H)-one]

IC50 ([1]; Homo sapiens, MV4-11, 72 h): 1.6 nM
SMILES: CN1CCC(Nc2nc(Nc3ccc(OCC4CCCC4)cc3)c3c(=O)[nH]cc(Br)c3n2)CC1 [Compound 235, 8-bromo-4-((4-(cyclopentylmethoxy)phenyl)amino)-2-((1-methylpiperidin-4-yl)amino)pyrido[4,3-d]pyrimidin-5(6H)-one]

IC50 (JAK2): 290 nM | IC50 (FLT3 mutant D835Y): 0.4 nM | IC50 ([1]; Homo sapiens, MV4-11, 72 h): 2.4 nM | IC50 [3]: 0.1 nM
SMILES: CN1CCC(Nc2nc(Nc3ccc(OCc4ccccc4)cc3)c3c(=O)[nH]cc(Br)c3n2)CC1 [Compound 221, 4-((4-(benzyloxy)phenyl)amino)-8-bromo-2-((1-methylpiperidin-4-yl)amino)pyrido[4,3-d]pyrimidin-5(6H)-one]

IC50 (JAK2): 1520 nM | IC50 (FLT3 mutant D835Y): 1.6 nM | IC50 [3]: 0.3 nM
SMILES: Cc1ccc(Oc2ccc(Nc3nc(NC4CCN(C)CC4)nc4c(Br)c[nH]c(=O)c34)cc2)cc1 [Compound 225, 8-bromo-2-((1-methylpiperidin-4-yl)amino)-4-((4-(p-tolyloxy)phenyl)amino)pyrido[4,3-d]pyrimidin-5(6H)-one]

IC50 (JAK2): 260 nM | IC50 (FLT3 mutant D835Y): 1.7 nM | IC50 ([1]; Homo sapiens, MV4-11, 72 h): 1.4 nM | IC50 [3]: 0.1 nM
SMILES: CN1CCC(Nc2nc(Nc3cccc(Oc4ccccc4)c3)c3c(=O)[nH]cc(Br)c3n2)CC1 [Compound 246, 8-bromo-2-((1-methylpiperidin-4-yl)amino)-4-((3-phenoxyphenyl)amino)pyrido[4,3-d]pyrimidin-5(6H)-one]

IC50 (JAK2): 1050 nM | IC50 (FLT3 mutant D835Y): 0.6 nM | IC50 ([1]; Homo sapiens, MV4-11, 72 h): 0.9 nM | IC50 [3]: 1.6 nM
SMILES: CN1CCC(Nc2nc(Nc3ccc(Oc4ccc(F)c(F)c4)cc3)c3c(=O)[nH]cc(Br)c3n2)CC1 [Compound 241, 8-bromo-4-((4-(3,4-difluorophenoxy)phenyl)amino)-2-((1-methylpiperidin-4-yl)amino)pyrido[4,3-d]pyrimidin-5(6H)-one hydrochloride]
